Data: paper PMC6136712, “Ex vivo drug sensitivity testing as a means for drug repurposing in esophageal adenocarcinoma” (PLoS ONE, 2018)
Structures can show the parent of a compound that is named as a salt.

Legend:
Type in all cases: cell-based, human
[1] = tested on: normal esophageal epithelium cell line EACN42; experiment: FDA library drug sensitivity testing (CellTiter-Glo, 72 h), normal control cells; set-up: key to DSS: modified drug sensitivity score (DSSmod) from dose-response curve fit
Summary of the method: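 HPV E6-E7-immortalized normal human esophageal epithelial cells, 1000 per well, exposed 72 h at 37 °C to drugs in duplicate from 10μM top concentration across a 20,000-fold range. Viability by ATP bioluminescence; DMSO wells as negative control; curves scored with modified drug sensitivity score (DSSmod).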

EAC42 cells = experiment: FDA library drug sensitivity testing (CellTiter-Glo, 72 h); details: EAC42; sDSSmod = DSSmod (patient cells) - DSSmod (normal cells)
Description: (§1) OE33, OE19 and SKGT2 human esophageal adenocarcinoma cell lines were obtained from the European Collection of Cell Culture ([…]). Flo1, EAC42 and EAC47 cells were established in the Capobianco Laboratory. EAC42 and EAC47 human esophageal adenocarcinoma cell lines are derived from patients undergoing surgery at the Miller School of Medicine, University of Miami. The Capobianco laboratory obtained written informed consent from all patients and approval from the Institutional Research Ethics Committee.
(§2) Drug sensitivity testing (DST) was performed as described previously. […] Individual drugs were dissolved in 100% DMSO and tested in duplicates starting at a maximal test concentration of 10μM then over a 20,000-fold concentration range to generate dose response curves. Wells with assay buffer containing DMSO served as negative controls. 1000 exponentially growing cells were seeded per well in 384-well micro-titer plates and incubated in the presence of compounds in a humidified environment at 37°C and 5% CO2. After 72 hours of treatment, cell viability was assessed by measuring ATP levels via bioluminescence (CellTiter-Glo, Promega) according to manufactures recommendations. Interpretation of curve parameters was performed according to the modified drug sensitivity scoring (DSSmod) function developed by Swords et al. […] Given in this way, the sDSSmod incorporated information on each drug’s potency, efficacy, effect range and therapeutic index, making it possible to prioritize compounds over multiple parameters using a single numerical metric. […] All calculations and scoring routines are implemented in MatLab and additional curve fitting and statistical analyses are performed in GraphPad prism.

EAC47 cells = experiment: as above; details: EAC47; sDSSmod = DSSmod (patient cells) - DSSmod (normal cells)
Description: as §1, §2

OE33 cells = experiment: as above; details: OE33; sDSSmod = DSSmod (patient cells) - DSSmod (normal cells)
Description: as §1, §2

SK-GT2 cells = experiment: as above; details: SK-GT2; sDSSmod = DSSmod (patient cells) - DSSmod (normal cells)
Description: as §1, §2

Flo-1 cells = experiment: as above; details: Flo-1; sDSSmod = DSSmod (patient cells) - DSSmod (normal cells)
Description: as §1
Drug sensitivity testing (DST) was performed as described previously. […] Individual drugs were dissolved in 100% DMSO and tested in duplicates starting at a maximal test concentration of 10μM then over a 20,000-fold concentration range to generate dose response curves. Wells with assay buffer containing DMSO served as negative controls. 1000 exponentially growing cells were seeded per well in 384-well micro-titer plates and incubated in the presence of compounds in a humidified environment at 37°C and 5% CO2. After 72 hours of treatment, cell viability was assessed by measuring ATP levels via bioluminescence (CellTiter-Glo, Promega) according to manufactures recommendations. Interpretation of curve parameters was performed according to the modified drug sensitivity scoring (DSSmod) function developed by Swords et al. As a final step, the selective DSSmod (sDSSmod) for each drug in each patient screen is calculated according to the formula sDSSmod = DSSmod (patient cells)—DSSmod (normal cells). Given in this way, the sDSSmod incorporated information on each drug’s potency, efficacy, effect range and therapeutic index, making it possible to prioritize compounds over multiple parameters using a single numerical metric. In addition, this methodology allows us to rank compounds by cancer-selective efficacy for each individual patient. […] All calculations and scoring routines are implemented in MatLab and additional curve fitting and statistical analyses are performed in GraphPad prism.

OE19 cells = experiment: as above; details: sDSSmod = DSSmod (patient cells) - DSSmod (normal cells)
Description: as §1, §2

[2] = Homo sapiens; EACN42 normal esophageal cells, 72 h, cell viability (ATP), max test concentration 10μM
[3] = drug sensitivity score, EACN42 normal esophageal cells, 72 h
[4] = Homo sapiens, 72 h, EACN42 normal esophageal cells, cell viability (ATP), max test concentration 10μM

Row | Structure (SMILES) | EC50 [1, 2] | DSS [1, 3] | sDSSmod (EAC42 cells) | sDSSmod (EAC47 cells) | sDSSmod (OE33 cells) | sDSSmod (SK-GT2 cells) | sDSSmod (Flo-1 cells) | sDSSmod (OE19 cells) | EC50 [1, 4]
1 | C/C=C(\C)C(=O)N[C@@H](c1ccccc1)[C@@H](O)C(=O)O[C@H]1C[C@@]2(O)[C@@H](OC(=O)c3ccccc3)[C@@H]3[C@]4(OC(C)=O)CO[C@@H]4C[C@H](O)[C@@]3(C)C(=O)[C@H](OC(C)=O)C(=C1C)C2(C)C [Cephalomannine] | 162 nM | 23.35 | -5.552 | -8.868 | 5.452 | 21.46 | 12.79 | – | –
2 | COc1cccc2c1C(=O)c1c(O)c3c(c(O)c1C2=O)C[C@@](O)(C(C)=O)C[C@@H]3O[C@H]1C[C@H](N)[C@H](O)[C@H](C)O1 [Daunorubicin HCl] | 980 nM | 21.12 | – | – | – | – | 5.15 | -13.6679 | –
3 | CC(=O)O[C@@]12CO[C@@H]1C[C@H](O)[C@@]1(C)C(=O)[C@H](O)C3=C(C)[C@@H](OC(=O)[C@H](O)[C@@H](NC(=O)OC(C)(C)C)c4ccccc4)C[C@@](O)([C@@H](OC(=O)c4ccccc4)[C@H]21)C3(C)C [Docetaxel] | – | 40.14 | -15.5932 | -23.2183 | – | 16.5247 | 8.04 | – | 3000 nM
4 | O=C1c2c(O)ccc(O)c2C(=O)c2c(NCCNCCO)ccc(NCCNCCO)c21 [Mitoxantrone Hydrochloride] | – | 17.16 | 6.699 | 5.242 | 9.033 | – | 17.0838 | – | 1670 nM
5 | COc1c(C)c2c(c(O)c1C/C=C(\C)CCC(=O)OCCN1CCOCC1)C(=O)OC2 [Mycophenolate mofetil] | – | 2.66 | 6.417 | – | 11.03 | – | 5.44 | – | 2180 nM
6 | COc1c(C)c2c(c(O)c1C/C=C(\C)CCC(=O)O)C(=O)OC2 [Mycophenolic] | – | 2.17 | 8.479 | 5.9818 | 16.23 | – | 10.92 | – | –
7 | CC(=O)O[C@H]1C(=O)[C@@]2(C)[C@H]([C@H](OC(=O)c3ccccc3)[C@]3(O)C[C@H](OC(=O)[C@H](O)[C@@H](NC(=O)c4ccccc4)c4ccccc4)C(C)=C1C3(C)C)[C@]1(OC(C)=O)CO[C@@H]1C[C@@H]2O [Paclitaxel] | – | 34.94 | -12.1 | -17.6632 | 7.642 | 12.8 | 9.33 | – | 10 nM
8 | Cc1ccc(Nc2nccc(N(C)c3ccc4c(C)n(C)nc4c3)n2)cc1S(N)(=O)=O.Cl [Pazopanib HCl] | – | 0.07 | – | – | 11.37 | – | 8.16 | – | –
9 | CCC(C)(C)C(=O)O[C@H]1C[C@@H](C)C=C2C=C[C@H](C)[C@H](CC[C@@H]3C[C@@H](O)CC(=O)O3)[C@H]21 [Simvastatin] | – | 5.66 | -5.363 | -5.66 | 26.15 | -5.66 | – | -5.647 | 3350 nM
10 | COc1cc([C@@H]2c3cc4c(cc3[C@@H](O[C@@H]3O[C@@H]5CO[C@@H](c6cccs6)O[C@H]5[C@H](O)[C@H]3O)[C@H]3COC(=O)[C@H]23)OCO4)cc(OC)c1O [Teniposide] | – | 6.79 | – | – | 39.45 | – | 10.22 | – | 5170 nM
11 | CC[C@]1(O)C[C@H]2CN(CCc3c([nH]c4ccccc34)[C@@](C(=O)OC)(c3cc4c(cc3OC)N(C=O)[C@H]3[C@@](O)(C(=O)OC)[C@H](OC(C)=O)[C@]5(CC)C=CCN6CC[C@]43[C@@H]65)C2)C1 [Vincristine] | – | – | -7.92 | -16.3015 | -8.234 | -7.21 | 6.31 | – | 30 nM
12 | O=P(O)(O)C(O)(Cn1ccnc1)P(=O)(O)O [Zoledronic Acid] | – | 0 | 9.833 | 6.526 | – | – | 5.26 | – | –
